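Tested at 5 concentrations; 48 h exposure; 96-well plates; endpoints linearly interpolated, else capped at highest concentration. Abbreviation: GI50, concentration required for 50% inhibition of growth.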 Activity calls are given as the source filed them. Cut-off read from the data, not from the text of the source: active = GI50 up to about 1.1 µM and inactive = higher.
How the values were obtained:
Assay in all cases: growth of human tumour cells (NCI), 48 h
K562 = tested on: K562
SF-539 = tested on: SF-539
HOP-62 = tested on: HOP-62
TK-10 = tested on: TK-10
NCI-H23 = tested on: NCI-H23
ACHN = tested on: ACHN
NCI/ADR-RES = tested on: NCI/ADR-RES
OVCAR-5 = tested on: OVCAR-5
A549 = tested on: A549
U-251 = tested on: U-251
HT-29 = tested on: HT-29
HCT-116 = tested on: HCT-116
SF-268 = tested on: SF-268
SK-MEL-28 = tested on: SK-MEL-28
NCI-H522 = tested on: NCI-H522
HCT-15 = tested on: HCT-15
CAKI-1 = tested on: CAKI-1
MCF7 = tested on: MCF7
SN12C = tested on: SN12C
HL-60 = tested on: HL-60
NCI-H460 = tested on: NCI-H460
MDA-N = tested on: MDA-N
M14 = tested on: M14
HCC 2998 = tested on: HCC 2998
A498 = tested on: A498
RXF 393 = tested on: RXF 393
EKVX = tested on: EKVX
Hs-578T = tested on: Hs-578T
PC-3 = tested on: PC-3
HOP-92 = tested on: HOP-92
786-0 = tested on: 786-0
RPMI-8226 = tested on: RPMI-8226
OVCAR-8 = tested on: OVCAR-8
Malme-3M = tested on: Malme-3M
OVCAR-3 = tested on: OVCAR-3
SK-OV-3 = tested on: SK-OV-3
KM12 = tested on: KM12
NCI-H226 = tested on: NCI-H226
SF-295 = tested on: SF-295
SK-MEL-5 = tested on: SK-MEL-5
UO-31 = tested on: UO-31
UACC-257 = tested on: UACC-257
SR = tested on: SR
IGROV-1 = tested on: IGROV-1
BT-549 = tested on: BT-549
MOLT-4 = tested on: MOLT-4
DU-145 = tested on: DU-145
MDA-MB-435 = tested on: MDA-MB-435
UACC-62 = tested on: UACC-62
LOX IMVI = tested on: LOX IMVI
OVCAR-4 = tested on: OVCAR-4
COLO 205 = tested on: COLO 205
SK-MEL-2 = tested on: SK-MEL-2
SW-620 = tested on: SW-620
SNB-19 = tested on: SNB-19
CCRF-CEM = tested on: CCRF-CEM
MDA-MB-231 = tested on: MDA-MB-231
SNB-75 = tested on: SNB-75

Structure (SMILES): CC[C@H]1C=CCC[C@@]2(C[C@@H]3CC[C@H]4[C@@H](C(=O)OCCCCCCCCCCCCCCCC(=O)N(CCCN)C[C@@H](O)CCN)[C@@]5(CCC[C@@H](C)O5)NC(=[N+]34)N2)O1
- GI50 (K562): 1.48 µM (inactive)
- GI50 (SF-539): 1.4 µM (inactive)
- GI50 (HOP-62): 1.69 µM (inactive)
- GI50 (TK-10): 1.58 µM (inactive)
- GI50 (NCI-H23): 1.78 µM (inactive)
- GI50 (ACHN): 3.9 µM (inactive)
- GI50 (NCI/ADR-RES): > 10 µM (inactive)
- GI50 (OVCAR-5): 1.63 µM (inactive)
- GI50 (A549): 1.77 µM (inactive)
- GI50 (U-251): 1.64 µM (inactive)
- GI50 (HT-29): 1.61 µM (inactive)
- GI50 (HCT-116): 1.61 µM (inactive)
- GI50 (SF-268): 1.93 µM (inactive)
- GI50 (SK-MEL-28): 1.36 µM (inactive)
- GI50 (NCI-H522): 1.66 µM (inactive)
- GI50 (HCT-15): > 10000 nM
- GI50 (CAKI-1): 5.64 µM (inactive)
- GI50 (MCF7): 1.62 µM (inactive)
- GI50 (SN12C): 2.96 µM (inactive)
- GI50 (HL-60): 2.14 µM (inactive)
- GI50 (NCI-H460): 1.74 µM (inactive)
- GI50 (MDA-N): 1.66 µM (inactive)
- GI50 (M14): 1.91 µM (inactive)
- GI50 (HCC 2998): 1.73 µM (inactive)
- GI50 (A498): 3.01 µM (inactive)
- GI50 (RXF 393): 1.8 µM (inactive)
- GI50 (EKVX): 1.76 µM (inactive)
- GI50 (Hs-578T): 1.83 µM (inactive)
- GI50 (PC-3): 1.62 µM (inactive)
- GI50 (HOP-92): 1.87 µM (inactive)
- GI50 (786-0): 1.88 µM (inactive)
- GI50 (RPMI-8226): 1.07 µM (active)
- GI50 (OVCAR-8): 2.36 µM (inactive)
- GI50 (Malme-3M): 1.67 µM (inactive)
- GI50 (OVCAR-3): 3.91 µM (inactive)
- GI50 (SK-OV-3): 1.8 µM (inactive)
- GI50 (KM12): 1.57 µM (inactive)
- GI50 (NCI-H226): 1.6 µM (inactive)
- GI50 (SF-295): 1.9 µM (inactive)
- GI50 (SK-MEL-5): 1.47 µM (inactive)
- GI50 (UO-31): 9.18 µM (inactive)
- GI50 (UACC-257): 1.75 µM (inactive)
- GI50 (SR): 1.85 µM (inactive)
- GI50 (IGROV-1): 1.74 µM (inactive)
- GI50 (BT-549): 2.01 µM (inactive)
- GI50 (MOLT-4): 1.23 µM (inactive)
- GI50 (DU-145): 1.8 µM (inactive)
- GI50 (MDA-MB-435): 1.55 µM (inactive)
- GI50 (UACC-62): 1.78 µM (inactive)
- GI50 (LOX IMVI): 1.91 µM (inactive)
- GI50 (OVCAR-4): 3.4 µM (inactive)
- GI50 (COLO 205): 1.83 µM (inactive)
- GI50 (SK-MEL-2): 1.7 µM (inactive)
- GI50 (SW-620): 2.12 µM (inactive)

Structure (SMILES): CC(=O)O[C@H]1C(=O)[C@]2(C)[C@@H](OC(=O)OCC(O)CO)C[C@H]3OC[C@@]3(OC(C)=O)[C@H]2[C@H](OC(=O)c2ccccc2)[C@]2(O)C[C@H](OC(=O)[C@H](O)[C@@H](NC(=O)c3ccccc3)c3ccccc3)C(C)=C1C2(C)C (some centres undefined) [PACLITAXEL CERIBATE]
- GI50 (K562): < 0.01 µM (active)
- GI50 (SF-539): < 0.01 µM (active)
- GI50 (HOP-62): < 0.01 µM (active)
- GI50 (TK-10): 0.0875 µM (active)
- GI50 (NCI-H23): < 0.01 µM (active)
- GI50 (ACHN): 11.1 µM (inactive)
- GI50 (NCI/ADR-RES): 1.1 µM (active)
- GI50 (OVCAR-5): < 0.01 µM (active)
- GI50 (A549): < 0.01 µM (active)
- GI50 (U-251): < 0.01 µM (active)
- GI50 (HT-29): < 0.01 µM (active)
- GI50 (HCT-116): < 0.01 µM (active)
- GI50 (SF-268): < 0.01 µM (active)
- GI50 (SNB-19): < 10 nM (active)
- GI50 (SK-MEL-28): 14.5 µM (inactive)
- GI50 (NCI-H522): < 0.01 µM (active)
- GI50 (HCT-15): 143 nM
- GI50 (CAKI-1): 0.893 µM (active)
- GI50 (MCF7): < 0.01 µM (active)
- GI50 (CCRF-CEM): < 10 nM (active)
- GI50 (SN12C): < 0.01 µM (active)
- GI50 (HL-60): < 0.01 µM (active)
- GI50 (NCI-H460): < 0.01 µM (active)
- GI50 (MDA-N): < 0.01 µM (active)
- GI50 (M14): < 0.01 µM (active)
- GI50 (HCC 2998): < 0.01 µM (active)
- GI50 (RXF 393): < 0.01 µM (active)
- GI50 (EKVX): 0.0387 µM (active)
- GI50 (Hs-578T): < 0.01 µM (active)
- GI50 (PC-3): < 0.01 µM (active)
- GI50 (HOP-92): 22.4 µM (inactive)
- GI50 (786-0): < 0.01 µM (active)
- GI50 (MDA-MB-231): < 10 nM (active)
- GI50 (RPMI-8226): < 0.01 µM (active)
- GI50 (OVCAR-8): < 0.01 µM (active)
- GI50 (OVCAR-3): < 0.01 µM (active)
- GI50 (SK-OV-3): < 0.01 µM (active)
- GI50 (KM12): < 0.01 µM (active)
- GI50 (SF-295): < 0.01 µM (active)
- GI50 (SK-MEL-5): < 0.01 µM (active)
- GI50 (UO-31): 0.601 µM (active)
- GI50 (SNB-75): < 10 nM (active)
- GI50 (UACC-257): < 0.01 µM (active)
- GI50 (SR): < 0.01 µM (active)
- GI50 (IGROV-1): < 0.01 µM (active)
- GI50 (BT-549): < 0.0147 µM (active)
- GI50 (MOLT-4): < 0.01 µM (active)
- GI50 (DU-145): < 0.01 µM (active)
- GI50 (MDA-MB-435): < 0.01 µM (active)
- GI50 (UACC-62): < 0.01 µM (active)
- GI50 (LOX IMVI): < 0.01 µM (active)
- GI50 (OVCAR-4): 17 µM (inactive)
- GI50 (COLO 205): < 0.01 µM (active)
- GI50 (SK-MEL-2): < 0.01 µM (active)
- GI50 (SW-620): < 0.01 µM (active)
